According to US9801880B2, “Use of kinase inhibitors” (BerGenBio AS, priority 2013, dated 2017):

Assays:
[1] = biological target: Tyro3 (Homo sapiens, UniProt Q06418); experiment: KinaseProfiler kinase activity assay; format: biochemical; parameters: purchased EMD Millipore Corp. (KinaseProfiler service); settings: ATP at Km
Excerpt: Detailed assay methodologies can be found in the relevant references cited herein, or in the KinaseProfiler Service Assay Protocols (v54, 2011) available from EMD Millipore (www.emdmillipore.com), or from the KinomeScan website (www.kinomescan.com), as appropriate. (For a more detailed description of KINOMEscan's assay technology, see: Fabian et al. A small molecule-kinase interaction map for clinical kinase inhibitors. Nat. Biotechnol. 23, 329-336 (2005)). A summary is provided below.
KinaseProfiler™ assays (EMD Millipore Corp. Billerica, Mass., USA) are […] with purified or partially-purified human kinases. Most of the KinaseProfiler™ assays are conducted in 20 mM MOPS, 1 mM EDTA, 0.01% Brij-35, 5% Glycerol, 0.1% b-mercaptoethanol, 1 mg/mL BSA. The assay involves the transfer of ^32P from γ-^32P-ATP to the target peptide, followed by washing and trapping of the labeled peptide on a filter. The concentration of γ-^32P-ATP used was at the established Km for ATP.

[2] = biological target: T1, TEK(R849W) (Homo sapiens, UniProt Q02763, R849W); experiment: KinaseProfiler kinase activity assay; format: biochemical; settings: ATP at Km
T1 construct: purchased EMD Millipore Corp. (KinaseProfiler service)
T1 sequence (Q02763 23-1124 R849W): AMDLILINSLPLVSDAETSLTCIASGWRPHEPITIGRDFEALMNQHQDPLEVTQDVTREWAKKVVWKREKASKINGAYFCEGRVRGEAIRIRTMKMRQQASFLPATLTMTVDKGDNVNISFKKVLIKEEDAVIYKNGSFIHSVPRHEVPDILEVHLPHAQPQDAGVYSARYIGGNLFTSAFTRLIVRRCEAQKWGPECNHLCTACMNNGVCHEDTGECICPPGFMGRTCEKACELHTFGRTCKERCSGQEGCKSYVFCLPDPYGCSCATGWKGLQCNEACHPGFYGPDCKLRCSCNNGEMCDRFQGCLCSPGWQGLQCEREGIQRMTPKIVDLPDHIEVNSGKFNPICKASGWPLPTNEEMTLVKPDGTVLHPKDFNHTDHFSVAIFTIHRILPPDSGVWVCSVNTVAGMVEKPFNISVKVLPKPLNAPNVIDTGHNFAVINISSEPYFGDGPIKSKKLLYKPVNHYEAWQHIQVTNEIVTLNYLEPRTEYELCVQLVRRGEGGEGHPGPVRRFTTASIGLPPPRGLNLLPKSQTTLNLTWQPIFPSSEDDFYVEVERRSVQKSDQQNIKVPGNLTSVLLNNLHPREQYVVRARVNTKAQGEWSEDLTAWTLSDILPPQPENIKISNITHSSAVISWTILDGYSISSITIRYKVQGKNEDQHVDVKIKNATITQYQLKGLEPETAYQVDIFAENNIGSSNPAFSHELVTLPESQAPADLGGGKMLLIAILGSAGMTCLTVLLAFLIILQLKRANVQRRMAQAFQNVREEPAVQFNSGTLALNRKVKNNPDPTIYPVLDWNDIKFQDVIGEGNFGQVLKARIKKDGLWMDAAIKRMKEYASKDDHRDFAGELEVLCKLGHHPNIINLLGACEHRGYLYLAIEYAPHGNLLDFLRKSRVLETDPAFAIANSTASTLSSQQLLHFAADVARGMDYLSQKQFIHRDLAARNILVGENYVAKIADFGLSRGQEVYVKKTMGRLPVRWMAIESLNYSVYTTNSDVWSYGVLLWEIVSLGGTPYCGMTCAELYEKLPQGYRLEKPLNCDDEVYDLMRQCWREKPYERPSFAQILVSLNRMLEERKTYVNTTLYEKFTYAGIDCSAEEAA
Excerpt: (§1) A summary is provided below.

[3] = biological target: T2, TEK(Y897S) (Homo sapiens, UniProt Q02763, Y897S); experiment: KinaseProfiler kinase activity assay; format: biochemical; settings: ATP at Km
T2 construct: purchased EMD Millipore Corp. (KinaseProfiler service)
T2 sequence (Q02763 23-1124 Y897S): as the sequence (Q02763 23-1124 R849W) above, with W827R, Y875S counted along it
Excerpt: as §1

[4] = system: Ba/F3 cells (WT, FLT3 WT, FLT3-ITD, D835Y); experiment: Annexin V-PI apoptosis/cell death assay, four Ba/F3 cell lines; format: cell-based, Murine
Excerpt: Murine pro-B lymphocyte line Ba/F3 wild type (Ba/F3 WT), and Ba/F3 lines stably transduced with expression vectors that encoded wild-type human FLT3 (Ba/F3 FLT3 WT cells) or human FLT3 containing an ITD mutation (Ba/F3-ITD cells) or D835Y (Ba/F3 D835Y cells) point mutations, which lead to constitutively functional activation of the protein, were obtained from Bjørn Tore Gjertsen (Department of Clinical Science, Hematology Section, University of Bergen, Bergen, Norway). Ba/F3 WT, Ba/F3 FLT3 WT and Ba/F3 835Y cells were maintained in RPMI-1640 medium, containing 10% fetal calf serum (FCS, HyClone, Logan, UT), 2 mM L-glutamine and 50 U/mL penicillin-streptomycin (Sigma-Aldrich, Inc, St Louis, Mo., USA), and 10% WEHI-3B conditioned medium as a source of murine interleukin-3 (mIL-3). […]
Quantification of apoptotic and necrotic cells was determined by measuring externalization of phosphatidylserine with annexin V, conjugated to Alexa® Fluor 647 (Invitrogen, Molecular Probes, OR, USA) and using propidium iodide (PI; Sigma-Aldrich) as a dead-cell counterstain. […] After drug treatment cells were stained according the manufacturer's protocol, and subsequently analysed on an Accuri C6 flow cytometer (Becton Dickinson Immunocytometry Systems, San Jose, Calif., USA). […] The percent viable cells are expressed as percentage of untreated cells, performed in a single experiment.

Chain of Tyro3 (Q06418 41-890): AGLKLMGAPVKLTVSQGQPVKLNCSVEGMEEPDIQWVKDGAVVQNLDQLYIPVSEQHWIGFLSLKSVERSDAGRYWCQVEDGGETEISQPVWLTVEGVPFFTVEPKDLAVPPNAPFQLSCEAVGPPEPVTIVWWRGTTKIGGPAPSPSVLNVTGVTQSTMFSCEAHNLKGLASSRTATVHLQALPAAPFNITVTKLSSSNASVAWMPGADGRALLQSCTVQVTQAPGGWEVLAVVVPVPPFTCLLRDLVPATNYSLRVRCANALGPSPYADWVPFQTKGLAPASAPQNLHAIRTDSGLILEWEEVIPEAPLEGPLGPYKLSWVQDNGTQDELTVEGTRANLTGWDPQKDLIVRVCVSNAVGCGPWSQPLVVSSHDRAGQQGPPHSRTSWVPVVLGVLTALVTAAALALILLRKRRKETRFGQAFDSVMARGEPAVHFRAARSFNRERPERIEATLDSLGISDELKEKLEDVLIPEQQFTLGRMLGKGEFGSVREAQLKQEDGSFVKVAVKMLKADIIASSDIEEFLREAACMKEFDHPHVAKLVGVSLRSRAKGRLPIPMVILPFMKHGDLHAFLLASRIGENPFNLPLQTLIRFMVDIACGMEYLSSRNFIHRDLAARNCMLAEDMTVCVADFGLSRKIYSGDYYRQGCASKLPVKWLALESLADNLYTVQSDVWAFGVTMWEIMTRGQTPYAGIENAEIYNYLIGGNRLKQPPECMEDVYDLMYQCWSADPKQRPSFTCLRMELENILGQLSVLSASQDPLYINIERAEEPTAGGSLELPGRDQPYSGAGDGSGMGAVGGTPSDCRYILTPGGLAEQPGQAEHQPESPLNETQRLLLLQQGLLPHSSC

Nc1nc(Nc2ccc3c(c2)CC[C@@H](N2CCCC2)CC3)nn1-c1cc2c(nn1)-c1ccccc1CCC2 [Compound A, 1-(6,7-dihydro-5H-benzo[6,7]cyclohepta[1,2-c]pyridazine-3-yl)-N^3-(7-(S)-(pyrrolidin-1-yl)-6,7,8,9-tetrahydro-5H-benzo[7]annulene-2-yl)-1H-1,2,4-triazole-3,5-diamine]
IC50 [1]: 413 nM
IC50 [2]: 22 nM
IC50 [3]: 13 nM
therapeutic window ([4]; investigated Ba/F3 cell lines, 48 hours): 0.5 to 3 µM
induction of apoptosis at higher doses ([4]; ≧3 μM, all cell lines regardless of FLT3 status): massive induction of apoptosis
